Experimental data: ChEMBL document CHEMBL1201862, “PubChem BioAssay data set” (2004)
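48-hour exposure; five concentrations; linearly interpolated endpoints. GI50 marks 50% less growth.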 Active and inactive are the calls of the source. Rule as the data show it: active = GI50 up to about 1.1 µM and inactive = higher.

Columns and labels:
Assay in all cases: DTP human tumour cell line panel, 48 h
K562 = system: K562
COLO 205 = system: COLO 205
TK-10 = system: TK-10
MDA-MB-231 = system: MDA-MB-231
SF-268 = system: SF-268
SN12C = system: SN12C
HT-29 = system: HT-29
ACHN = system: ACHN
A498 = system: A498
NCI-H226 = system: NCI-H226
OVCAR-5 = system: OVCAR-5
MDA-MB-435 = system: MDA-MB-435
Malme-3M = system: Malme-3M
OVCAR-4 = system: OVCAR-4
MCF7 = system: MCF7
SK-MEL-28 = system: SK-MEL-28
HOP-92 = system: HOP-92
786-0 = system: 786-0
UACC-257 = system: UACC-257

Structure (SMILES)	GI50 (K562)	GI50 (COLO 205)	GI50 (TK-10)	GI50 (MDA-MB-231)	GI50 (SF-268)	GI50 (SN12C)	GI50 (HT-29)	GI50 (ACHN)	GI50 (A498)	GI50 (NCI-H226)	GI50 (OVCAR-5)	GI50 (MDA-MB-435)	GI50 (Malme-3M)	GI50 (OVCAR-4)	GI50 (MCF7)	GI50 (SK-MEL-28)	GI50 (HOP-92)	GI50 (786-0)	GI50 (UACC-257)
COc1ccc(N2C(=O)C3c4[nH]c5cccc(C)c5c4C4CCC(C(C)(C)C)CC4C3C2=O)cc1 (centres undefined)	> 10 µM (inactive)	> 10 µM (inactive)	> 10 µM (inactive)	> 10 µM (inactive)	> 10 µM (inactive)	> 10 µM (inactive)	> 10 µM (inactive)	> 10 µM (inactive)	> 10 µM (inactive)	> 10 µM (inactive)	> 10 µM (inactive)	> 10 µM (inactive)	> 10 µM (inactive)	0.796 µM (active)	> 10 µM (inactive)	> 10 µM (inactive)	–	–	–
CC(C)CCCC(C)[C@H]1CC[C@H]2[C@@H]3CC[C@H]4C[C@@H](CCC=C(c5cc(Cl)c(O)c(C(=O)OC(C)C)c5)c5cc(Cl)c(O)c(C(=O)OC(C)C)c5)CC[C@]4(C)[C@H]3CC[C@]12C (some centres undefined)	> 50 µM (inactive)	> 50 µM (inactive)	–	> 50 µM (inactive)	> 50 µM (inactive)	> 50 µM (inactive)	> 50 µM (inactive)	–	> 50 µM (inactive)	–	> 50 µM (inactive)	> 50 µM (inactive)	–	> 50 µM (inactive)	> 50 µM (inactive)	> 50 µM (inactive)	> 50 µM (inactive)	> 50 µM (inactive)	–
c1ccc2c(c1)nc1n2CNC1	> 100 µM (inactive)	> 100 µM (inactive)	> 100 µM (inactive)	> 100 µM (inactive)	> 100 µM (inactive)	> 100 µM (inactive)	> 100 µM (inactive)	> 100 µM (inactive)	> 100 µM (inactive)	–	> 100 µM (inactive)	> 100 µM (inactive)	–	> 100 µM (inactive)	> 100 µM (inactive)	> 100 µM (inactive)	> 100 µM (inactive)	> 100 µM (inactive)	> 100 µM (inactive)
Cc1nn(C(=O)c2ccccc2O)c2c1C(c1ccc(O)cc1)SC(=N)N2 (centres undefined)	0.955 µM (active)	> 6.93 µM (inactive)	> 2.52 µM (inactive)	> 3.18 µM (inactive)	3.45 µM (inactive)	1.79 µM (inactive)	> 6.9 µM (inactive)	0.951 µM (active)	3.06 µM (inactive)	–	> 6.35 µM (inactive)	1.21 µM (inactive)	0.601 µM (active)	> 2.12 µM (inactive)	> 2.36 µM (inactive)	> 10 µM (inactive)	–	> 2.56 µM (inactive)	0.805 µM (active)
COc1ccc(C(CC2(c3ccc(OC)cc3)SCCCS2)NC(C)=O)cc1 (centres undefined)	35.4 µM (inactive)	25.1 µM (inactive)	39.8 µM (inactive)	> 100 µM (inactive)	87.3 µM (inactive)	29.6 µM (inactive)	65.2 µM (inactive)	63 µM (inactive)	90.6 µM (inactive)	–	> 100 µM (inactive)	40.7 µM (inactive)	86.9 µM (inactive)	–	37.2 µM (inactive)	> 100 µM (inactive)	83.6 µM (inactive)	> 100 µM (inactive)	26.2 µM (inactive)
CCOC(=O)C(c1c[nH]c2ccccc12)(c1c[nH]c2ccccc12)c1c[nH]c2ccccc12	12.9 µM (inactive)	15.7 µM (inactive)	41.3 µM (inactive)	36.8 µM (inactive)	32.8 µM (inactive)	43 µM (inactive)	34.4 µM (inactive)	37.1 µM (inactive)	35.2 µM (inactive)	–	55 µM (inactive)	18.7 µM (inactive)	30.4 µM (inactive)	–	19.7 µM (inactive)	33.7 µM (inactive)	37 µM (inactive)	44.5 µM (inactive)	34 µM (inactive)
O=C(O)c1c[nH]c2c(Sc3ccccc3)nccc2c1=O	–	> 100 µM (inactive)	> 100 µM (inactive)	> 100 µM (inactive)	> 100 µM (inactive)	> 100 µM (inactive)	> 100 µM (inactive)	> 100 µM (inactive)	> 100 µM (inactive)	> 100 µM (inactive)	> 100 µM (inactive)	> 100 µM (inactive)	–	> 100 µM (inactive)	> 100 µM (inactive)	> 100 µM (inactive)	> 100 µM (inactive)	> 100 µM (inactive)	> 100 µM (inactive)
Nc1nc2c(c(-c3ccccc3Cl)n1)COC/C2=C\c1ccccc1Cl	12.2 µM (inactive)	16.3 µM (inactive)	17.6 µM (inactive)	16.9 µM (inactive)	16.9 µM (inactive)	16.6 µM (inactive)	–	17.9 µM (inactive)	16.4 µM (inactive)	18.8 µM (inactive)	17.2 µM (inactive)	10.3 µM (inactive)	–	19.7 µM (inactive)	14.5 µM (inactive)	–	14.8 µM (inactive)	17.2 µM (inactive)	18.7 µM (inactive)
CC1(CO)COC(C)(C)OC1	–	> 100 µM (inactive)	> 100 µM (inactive)	> 100 µM (inactive)	> 100 µM (inactive)	> 100 µM (inactive)	> 100 µM (inactive)	> 100 µM (inactive)	> 100 µM (inactive)	> 100 µM (inactive)	–	> 100 µM (inactive)	–	> 100 µM (inactive)	> 100 µM (inactive)	> 100 µM (inactive)	> 100 µM (inactive)	–	> 100 µM (inactive)
C=C(Br)CNC(=O)CCC(=O)NCC(=C)Br	> 100 µM (inactive)	> 100 µM (inactive)	> 100 µM (inactive)	> 100 µM (inactive)	> 100 µM (inactive)	> 100 µM (inactive)	> 100 µM (inactive)	> 100 µM (inactive)	> 100 µM (inactive)	> 100 µM (inactive)	> 100 µM (inactive)	> 100 µM (inactive)	> 100 µM (inactive)	> 100 µM (inactive)	> 100 µM (inactive)	> 100 µM (inactive)	–	> 100 µM (inactive)	> 100 µM (inactive)
CC1=C(C(=O)NNC(=O)CC#N)CC(C(=O)NNC(=O)CC#N)=C(C)N1	–	> 100 µM (inactive)	> 100 µM (inactive)	> 100 µM (inactive)	> 100 µM (inactive)	> 100 µM (inactive)	> 100 µM (inactive)	> 100 µM (inactive)	> 100 µM (inactive)	> 100 µM (inactive)	> 100 µM (inactive)	> 100 µM (inactive)	–	> 100 µM (inactive)	> 100 µM (inactive)	> 100 µM (inactive)	> 100 µM (inactive)	> 100 µM (inactive)	> 100 µM (inactive)
O=P1(N(CCCl)CCCl)Oc2ccc(Cl)cc2Sc2c(ccc(Cl)c2Cl)O1 (centres undefined)	3.47 µM (inactive)	8.18 µM (inactive)	9.18 µM (inactive)	12.3 µM (inactive)	92.9 µM (inactive)	11.9 µM (inactive)	7.29 µM (inactive)	7.41 µM (inactive)	22.2 µM (inactive)	8.26 µM (inactive)	27.4 µM (inactive)	7.1 µM (inactive)	–	23.9 µM (inactive)	6.38 µM (inactive)	11.5 µM (inactive)	4.42 µM (inactive)	8.13 µM (inactive)	10.4 µM (inactive)
O=C(CCCN1CCC2(CC1)CC(=O)N(N1CCOCC1)C2=O)c1ccc(F)cc1	> 100 µM (inactive)	> 100 µM (inactive)	> 100 µM (inactive)	> 100 µM (inactive)	> 100 µM (inactive)	> 100 µM (inactive)	> 100 µM (inactive)	> 100 µM (inactive)	> 100 µM (inactive)	99.3 µM (inactive)	> 100 µM (inactive)	> 100 µM (inactive)	> 100 µM (inactive)	–	> 100 µM (inactive)	> 100 µM (inactive)	–	> 100 µM (inactive)	> 100 µM (inactive)
COc1ccc(/N=N/C(=N\c2ccc(F)cc2)c2ccc(N(CCC#N)CCC#N)cc2)cc1	27.6 µM (inactive)	39.2 µM (inactive)	46.5 µM (inactive)	14.3 µM (inactive)	35.2 µM (inactive)	31.8 µM (inactive)	39.5 µM (inactive)	82.8 µM (inactive)	21.4 µM (inactive)	> 100 µM (inactive)	52.1 µM (inactive)	39.2 µM (inactive)	–	40.9 µM (inactive)	28.4 µM (inactive)	39 µM (inactive)	25.6 µM (inactive)	42.3 µM (inactive)	19 µM (inactive)
C[N+]1(C)[C@@H]2CC[C@H]1C[C@@H](OC(=O)C(CO)c1ccccc1)C2 (some centres undefined) [ATROPINE METHYLBROMIDE]	> 100 µM (inactive)	> 100 µM (inactive)	> 100 µM (inactive)	> 100 µM (inactive)	> 100 µM (inactive)	> 100 µM (inactive)	> 100 µM (inactive)	> 100 µM (inactive)	> 100 µM (inactive)	> 100 µM (inactive)	> 100 µM (inactive)	> 100 µM (inactive)	> 100 µM (inactive)	> 100 µM (inactive)	> 100 µM (inactive)	> 100 µM (inactive)	–	> 100 µM (inactive)	> 100 µM (inactive)
NS(=O)(=O)c1ccc(C(=O)O)cc1 [CARZENIDE]	> 100 µM (inactive)	> 100 µM (inactive)	> 100 µM (inactive)	> 100 µM (inactive)	> 100 µM (inactive)	> 100 µM (inactive)	> 100 µM (inactive)	> 100 µM (inactive)	> 100 µM (inactive)	–	> 100 µM (inactive)	> 100 µM (inactive)	> 100 µM (inactive)	> 100 µM (inactive)	> 100 µM (inactive)	> 100 µM (inactive)	97.5 µM (inactive)	> 100 µM (inactive)	–
